From patent US12479822B2, “AHR agonists” (Eli Lilly and Company, priority 2021, dated 2025) come the findings set out here.

The data set has as its target T1, Human AHR (Homo sapiens, UniProt P35869).
T1 construct: expressed in transfected cells
T1 sequence (P35869 11-848): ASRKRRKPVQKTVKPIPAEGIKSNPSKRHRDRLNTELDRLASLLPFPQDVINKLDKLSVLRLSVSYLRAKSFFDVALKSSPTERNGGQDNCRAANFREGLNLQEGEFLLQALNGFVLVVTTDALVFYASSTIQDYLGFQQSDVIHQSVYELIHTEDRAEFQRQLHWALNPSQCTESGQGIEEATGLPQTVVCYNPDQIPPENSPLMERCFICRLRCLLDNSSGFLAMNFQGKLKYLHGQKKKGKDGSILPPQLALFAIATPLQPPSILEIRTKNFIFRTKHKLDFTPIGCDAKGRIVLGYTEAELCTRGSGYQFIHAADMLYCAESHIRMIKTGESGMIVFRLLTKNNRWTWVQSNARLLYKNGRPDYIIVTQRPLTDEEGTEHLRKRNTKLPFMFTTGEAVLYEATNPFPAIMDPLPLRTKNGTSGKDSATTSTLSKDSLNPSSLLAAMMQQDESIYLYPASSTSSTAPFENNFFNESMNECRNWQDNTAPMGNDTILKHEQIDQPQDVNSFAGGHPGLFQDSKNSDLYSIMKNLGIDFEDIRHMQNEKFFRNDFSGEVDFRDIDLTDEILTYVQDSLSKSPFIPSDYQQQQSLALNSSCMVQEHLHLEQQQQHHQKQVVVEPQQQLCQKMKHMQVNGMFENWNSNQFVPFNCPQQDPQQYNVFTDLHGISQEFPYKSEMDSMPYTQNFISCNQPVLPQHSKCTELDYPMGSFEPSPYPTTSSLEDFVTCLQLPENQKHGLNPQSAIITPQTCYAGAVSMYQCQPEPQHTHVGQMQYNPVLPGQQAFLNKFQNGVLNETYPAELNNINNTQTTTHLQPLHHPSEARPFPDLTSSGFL
Briefly: hAHR Nuclear Translocation Assay. It counts as cell-based. The note with it: Jump-In T-REx HEK293 cells expressing AhR-EGFP chimera; 45 minutes incubation; ratio of EGFP fluorescent intensity in nuclear over cytosol; 20-point curve. How it is done:
Stable cell lines were established using Jump-In™ T-REx™ HEK293 Retargeting Kit (Life Technologies). Human AHR cDNA was cloned into the pJTI R4 CMV-TO EGFP vector. The EGFP was cloned to the C-terminal of AHR to form AhR-EGFP chimera. The pJTI R4 CMV-TO AhR-EGFP vector was transfected using FuGENE® HD into Jump-In™ T-REx™ HEK293 cells. Transfected cells were selected using 2.5 mg/ml G418 for 10 to 14 days, then expanded, harvested, and suspended in freeze media (FBS with 8% DMSO) at 2×10^7 cells/ml, and aliquots were stored in liquid nitrogen. […] On the assay date, compound was serially diluted (1:2) into 384-well nunc plates with DMSO using acoustic dispensing (ECHO). The dose response was a 20-point curve. Compound was resuspended in 40 μl of DMEM plus 0.1% BSA. The culture media was damped and 25 μl of DMEM plus 0.1% BSA was added, then 25 μl of compound in DMEM plus 0.1% BSA was added into cell plates. Cells were incubated with compounds at 37° C. and 5% CO2 for 45 minutes. The final DMSO concentration was 0.2%. The media was damped after 45 minutes of incubation. The cells were fixed with 40 μl of cold methanol (−20° C.) for 20 minutes. The methanol was damped and 50 μl of DPBS containing 1 μg/ml Hochst was added into the cell plates. The intensity of EGFP was quantitated by using OPERA PHENIX® or Operetta™ high content image system (Perkin Elmer) with 20× Water Objective and five field per well. The ratio of EGFP fluorescent intensity in nuclear over cytosol was analyzed using a 4-parameter nonlinear logistic equation to determine the potency of AHR agonists.

`Cn1c(=O)c(C(=O)Nc2ccncc2)cc2ccccc21` [Example 12, 1-Methyl-2-oxo-N-(4-pyridyl)quinoline-3-carboxamide]: the EC50 amounted to 6.89 nM. With `COc1ccc(NC(=O)c2cc3ccc(NCCN(C)C)cc3n(C)c2=O)cc1` [Example 56, 7-[2-(Dimethylamino)ethylamino]-N-(4-methoxyphenyl)-1-methyl-2-oxo-quinoline-3-carboxamide], the half-maximal effective concentration (EC50) worked out at 79.2 nM. In the case of `Cn1c(=O)c(C(=O)Nc2ccc(F)cc2)cc2cccnc21` [Example 18, N-(4-Fluorophenyl)-1-methyl-2-oxo-1,8-naphthyridine-3-carboxamide], the EC50 came out at 0.468 nM. Take `COc1ccc(NC(=O)c2cc3ccccc3n(C)c2=O)c(C)c1` [Example 6, N-(4-Methoxy-2-methyl-phenyl)-1-methyl-2-oxo-quinoline-3-carboxamide]: the EC50 turned out to be 5.17 nM. For the compound `O=C(Nc1ccccn1)c1cc2cccc3c2n(c1=O)CC3` [Example 42, 11-Oxo-N-(2-pyridyl)-1-azatricyclo[6.3.1.04,12]dodeca-4(12),5,7,9-tetraene-10-carboxamide], the EC50 was found to be 3.96 nM. As to `Cn1c(=O)c(C(=O)Nc2ccccc2O)cc2ccccc21` [Example 2, N-(2-Hydroxyphenyl)-1-methyl-2-oxo-quinoline-3-carboxamide], the EC50 was 2.41 nM. With `Cc1cnc(NC(=O)c2cc3ccccc3n(C)c2=O)nc1` [Example 17, 1-Methyl-N-(5-methylpyrimidin-2-yl)-2-oxo-quinoline-3-carboxamide], the EC50 came out at 2.37 nM. As for `Cn1c(=O)c(C(=O)Nc2ccccc2)cc2cc(NCCO)ccc21` [Example 62, 6-(2-Hydroxyethylamino)-1-methyl-2-oxo-N-phenyl-quinoline-3-carboxamide], the EC50 is 6 nM. Turning to `Cn1c(=O)c(C(=O)Nc2ccc(F)cn2)cc2ccccc21` [Example 22, N-(5-Fluoro-2-pyridyl)-1-methyl-2-oxo-quinoline-3-carboxamide], the EC50 was found to be 0.389 nM. The same measure for `Cc1ccccc1NC(=O)c1cc2ccccc2n(C)c1=O` [Example 11, 1-Methyl-N-(o-tolyl)-2-oxo-quinoline-3-carboxamide]: 3.5 nM; for `Cc1ccnc(NC(=O)c2cc3ccccc3n(C)c2=O)c1` [Example 7, 1-Methyl-N-(4-methyl-2-pyridyl)-2-oxo-quinoline-3-carboxamide]: 6.13 nM; for `CN(C)CCNc1cccc2c1cc(C(=O)Nc1ccccn1)c(=O)n2C` [Example 53, 5-[2-(Dimethylamino)ethylamino]-1-methyl-2-oxo-N-(2-pyridyl)quinoline-3-carboxamide]: 16.2 nM. In the case of `COc1ccc(NC(=O)c2cc3ccc(C)cc3n(C)c2=O)cc1` [Example 44, N-(4-Methoxyphenyl)-1,7-dimethyl-2-oxo-quinoline-3-carboxamide], the EC50 turned out to be 0.595 nM. In the case of `Cn1c(=O)c(C(=O)Nc2ccccc2)cc2ccc(OCCO)cc21` [Example 61, 7-(2-Hydroxyethoxy)-1-methyl-2-oxo-N-phenyl-quinoline-3-carboxamide], the EC50 amounted to 16.1 nM. Regarding `CN(C)CCNc1cccc2c1cc(C(=O)Nc1ccccc1)c(=O)n2C` [Example 48, 5-[2-(Dimethylamino)ethylamino]-1-methyl-2-oxo-N-phenyl-quinoline-3-carboxamide], the EC50 amounted to 21.3 nM. Under `O=C(Nc1ccc(C(F)(F)F)cc1)c1cc2cccc3c2n(c1=O)CC3` [Example 33, 11-Oxo-N-[4-(trifluoromethyl)phenyl]-1-azatricyclo[6.3.1.04,12]dodeca-4(12),5,7,9-tetraene-10-carboxamide] stands 1.33 nM. In the case of `Cn1c(=O)c(C(=O)Nc2ccccc2)cc2ccc(NCCO)cc21` [Example 70, 7-(2-Hydroxyethylamino)-1-methyl-2-oxo-N-phenyl-quinoline-3-carboxamide], the EC50 turned out to be 15.1 nM. As for `Cn1c(=O)c(C(=O)Nc2ccc(F)cn2)cc2cc(NCCO)ccc21` [Example 66, N-(5-Fluoro-2-pyridyl)-6-(2-hydroxyethylamino)-1-methyl-2-oxo-quinoline-3-carboxamide], the half-maximal effective concentration (EC50) came out at 53.9 nM.

A word on the EC50: it is the concentration that produces a half-maximal response.
